pIC50: −log10 of the molar value.
Legend:
[1] = Hepatocellular metabolic stability test, mouse hepatocytes
From the text: (§1) Experimental materials: Human hepatocytes were purchased from Biopredic; mouse hepatocytes were purchased from BioIVT; acetonitrile and methanol were purchased from Merck & Co., Inc.; AOPI dyes were purchased from Nexcelom; dexamethasone was purchased from NIFDC; DMSO was purchased from Beijing Solarbio Science & Technology Co., Ltd.; DPBS (10×), GlutaMAX™-1 (100×) and recombinant human insulin were purchased form Gibco by Life Technologies; fetal bovine serum was purchased from Corning; formic acid was purchased from DIKMAPURE; Isotonic Percoll was purchased from GE Healthcare; alprazolam was purchased from Supelco; caffeine was purchased from ChromaDex.inc; and HEPES, tolbutamide and Williams' Medium E were purchased from Sigma.
(§2) The powder of a test substance was formulated with DMSO into a stock solution with a high concentration, which was diluted to a working solution of 100 μM with acetonitrile prior to use. The final concentration of the test substance was 1 μM.
(§3) 49.5 mL of Williams'E Medium and 0.5 mL of GlutaMAX were mixed as an incubation media. Hepatocyte thawing media and incubation media were placed in a 37° C. water-bath and pre-heated for at least 15 minutes prior to use. A tube of hepatocytes stored at an ultra-low temperature was taken and the hepatocytes were ensured to be at a frozen state at a low temperature prior to thawing. The hepatocytes were rapidly placed in a 37° C. water-bath and gently shaken until all the ice crystals were dispersed, and then after 70% ethanol was sprayed, the hepatocytes were transferred to a biosafety cabinet. The content of the tube was poured into a centrifugal tube containing 50 mL of thawing media and centrifuged at 100 g for 10 minutes. After centrifugation, the thawing media was aspirated, and a sufficient amount of incubation media was added to obtain a cell suspension with a cell density of about 1.5×10^6 cells/mL. The hepatocytes were counted, and the viable cell density was determined using Cellometer Vision, and the survival rate of the hepatocytes must be higher than 75%. The hepatocyte suspension was diluted by using the incubation media to a viable cell density of 0.5×10^6 viable cells/mL.
(§4) 247.5 μL of viable cell (human hepatocytes or mouse hepatocytes) suspension or media were transferred into a 96-well deep-well plate, and the deep-well plate was placed in a vortex incubator and pre-heated for 10 minutes. Incubation of all the samples was performed in parallel duplicate. Test substance (2.5 μL, 100 μM) was added into each well to start the reaction and the deep-well plate was placed in the vortex incubator again. The samples were incubated, and 25 μL of the suspension was taken at 0, 15, 30, 60, 90 and 120 minutes, respectively. 125 μL of acetonitrile containing internal standard (100 nM alprazolam, 200 nM caffeine, and 100 nM tolbutamide) was added to terminate the reaction. The mixture was vortexed for 10 minutes and centrifuged at 3220 g, 4° C. for 30 minutes. After centrifugation, 100 μL of the supernatant was transferred into the loading plate and 150 μL of pure water was added and mixed uniformly for LC-MS/MS analysis.
(§5) All the data calculation was performed by the Microsoft Excel software. The peak area was detected by extracting the ion chromatogram. The in vitro half-life (t1/2) of the parent drug was detected by performing linear fitting of the natural logarithm of elimination percent of the parent drug and time.
(§6) The in vitro half-life (t1/2) was calculated by means of the slope:

PRMT5/MEP50 = molecular target: T1, PRMT5/MEP50 (Homo sapiens, UniProt O14744); experiment: PRMT5 enzymatic activity inhibition experiment (AlphaScreen); format: biochemical
T1 construct: purchased BPS Bioscience Inc. (USA)
From the text: Materials: PRMT5/MEP50 proteins were purchased from BPS Bioscience Inc. (USA); Histone H4 Peptide substrate was purchased from Sangon Biotech (Shanghai) Co., Ltd.; Anti-Histone H4 (symmetric dimethyl R3) antibody—ChIP Grade was purchased from Abcam PLC. (USA); S-(5′-Adenosyl)-L-methionine chloride dihydrochloride was purchased from Sigma PLC. (USA); 384-well plate, AlphaScreen Streptavidin Donor beads, AlphaScreen Protein A Acceptor beads, and Envision 2104 multi-label Reader were purchased from Perkin-Elmer Instruments (USA) Corporation; and Echo 550 Liquid Handler was purchased from Labcyte Inc. (USA).
Enzymatic activity assay: The compounds were added into a 384-well plate by using the Echo 550 Liquid Handler with the final concentration of 0-1000 nM (initial concentration: 1000 nM, 3-fold dilution, for 10 points), and the DMSO content was 0.5%. 10 μL of a 2× PRMT5/MEP50 solution was added into each well and incubated at room temperature for 30 minutes. 10 μL of 2× PRMT5/MEP50 substrate solution was added to each well to start the reaction and incubated at room temperature for 60 minutes. A 6× detection reagent containing AlphaScreen Protein A Acceptor beads and Anti-Histone H4 (symmetric dimethyl R3) antibodies was prepared and 5 μL was added to each well. The plate was incubated at room temperature for 60 minutes. A 6× detection reagent containing AlphaScreen Streptavidin Donor beads was prepared and 5 μL was added to each well. The plate was incubated at room temperature for 60 minutes. The signal values were detected by using the Envision.

[2] = Hepatocellular metabolic stability test, human hepatocytes
From the text: as §1, §2, §3, §4, §5, §6

SDMA in Z-138 cells = experiment: Inhibitory activity on SDMA in cells (immunofluorescent assay); format: cell-based; conditions: Homo sapiens, 48 h, 2 days, read-out: Inhibition of SDMA in cells IC50
From the text: Materials and cells: Z-138 cells were purchased from ATCC (USA); IMDM medium and penicillin-streptomycin were purchased from Sigma PLC. (USA); horse serum was purchased from Hyclone (USA); Hoechst antibodies were purchased from Invitrogen (USA); Alexa Fluor 488 goat anti-rabbit IgG antibodies were purchased from Invitrogen (USA); Anti-dimethyl-Arginine symmetric (SYM11) antibodies were purchased from Merck & Co., Inc. (USA); DPBS was purchased from Gibco (USA); Nonfat Dry milk was purchased from Cell Signaling Technology (USA); paraformaldehyde was purchased from Beijing Solarbio Science & Technology Co., Ltd.; 384-well plate and Echo 550 Liquid Handler were purchased from Labcyte Inc. (USA); and an ImageXpress Nano was purchased from Molecular Devices (USA).
Cell culture: Z-138 cells were cultured in an IMDM culture solution containing 10% Horse serum+1% penicillin−streptomycin at 37° C., 5% CO2. Cells in logarithmic growth phase were suitable for the experiment.
Immunofluorescent assay: The effects of the compounds on SDMA in Z-138 cells were detected by using immunofluorescence. The cells were adjusted to the concentration of 1*10^5/mL and 40 μL was inoculated in each well of the 384-well plate (4000/well) and equilibrated for 10-15 minutes at 37° C., 5% CO2. The compound was added into a 384-well plate by using the Echo 550 Liquid Handler with the final concentration of 0-300 nM (initial concentration: 300 nM, 3-fold dilution, for 10 points), and the DMSO content was 0.1%. The cell plate was placed at 37° C., 5% CO2 and incubated for 2 days. 40 μL of 8% paraformaldehyde was added into each well and incubated at room temperature for 30 minutes. The supernatant was discarded, the plate was washed with DPBS, and 40 μL of 0.5% PBST (phosphate buffer with Tween) was added into each well and incubated at room temperature for 60 minutes. The supernatant was discarded, the plate was washed with 0.05% PBST, and 40 μL of a blocking solution (1% Nonfat milk in 0.05% PBST) was added into each well and incubated at room temperature for 60 minutes. The supernatant was discarded, and 20 μL of the primary antibody (SYM11, diluted with a blocking solution at 1:500) was added into each well and maintained at 4° C. overnight. The supernatant was discarded, the plate was washed with 0.05% PBST, 20 μL of the secondary antibody (Alexa Fluor 488 goat anti-rabbit and Hoechst, diluted with a blocking solution at 1:1000 and 1:5000, respectively) was added to each well and incubated at room temperature for 60 minutes. The supernatant was discarded, the plate was washed with 0.05% PBST, and the fluorescent intensity was detected with ImageXpress Nano.

T1 sequence (O14744 2-637 limits assumed): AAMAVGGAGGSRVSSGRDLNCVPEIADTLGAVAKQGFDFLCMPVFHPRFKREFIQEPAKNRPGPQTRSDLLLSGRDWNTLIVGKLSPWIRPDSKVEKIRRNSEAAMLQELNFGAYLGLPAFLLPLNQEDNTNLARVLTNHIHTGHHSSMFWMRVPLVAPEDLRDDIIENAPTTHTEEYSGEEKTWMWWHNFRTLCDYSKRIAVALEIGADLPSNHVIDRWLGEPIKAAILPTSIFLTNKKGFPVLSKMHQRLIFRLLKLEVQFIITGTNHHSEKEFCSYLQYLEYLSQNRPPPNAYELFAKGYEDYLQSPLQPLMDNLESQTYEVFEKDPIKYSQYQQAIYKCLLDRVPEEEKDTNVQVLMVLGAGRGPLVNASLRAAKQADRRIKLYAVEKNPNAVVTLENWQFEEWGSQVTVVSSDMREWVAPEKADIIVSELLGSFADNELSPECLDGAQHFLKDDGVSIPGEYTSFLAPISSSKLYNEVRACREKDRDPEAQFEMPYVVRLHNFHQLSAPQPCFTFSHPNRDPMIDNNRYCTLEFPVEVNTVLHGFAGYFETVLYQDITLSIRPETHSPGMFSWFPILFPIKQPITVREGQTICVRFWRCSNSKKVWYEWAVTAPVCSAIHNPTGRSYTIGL
T1 sequence (Q9BQA1 2-342 partner limits assumed): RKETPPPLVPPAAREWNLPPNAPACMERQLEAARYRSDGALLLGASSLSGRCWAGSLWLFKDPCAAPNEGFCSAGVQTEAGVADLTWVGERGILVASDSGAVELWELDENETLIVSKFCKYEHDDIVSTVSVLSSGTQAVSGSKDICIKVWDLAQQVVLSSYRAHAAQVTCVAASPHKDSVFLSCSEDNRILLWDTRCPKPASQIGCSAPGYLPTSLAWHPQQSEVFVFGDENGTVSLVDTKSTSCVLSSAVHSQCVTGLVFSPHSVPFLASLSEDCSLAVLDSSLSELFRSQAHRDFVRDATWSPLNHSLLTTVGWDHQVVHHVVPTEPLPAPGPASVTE

For `CCN1CCN(C[C@@H](O)[C@@H]2Cc3ccccc3CN2)C(=O)c2ccc(C(=O)N3CCC4(CC3)CC(OC)C4)cc21.Cl` [Compound 002, 1-ethyl-4-((R)-2-hydroxy-2-((S)-1,2,3,4-tetrahydroisoquinolin-3-yl)ethyl)-8-(2-methoxy-7-azaspiro[3.5]nonane-7-carbonyl)-1,2,3,4-tetrahydro-5H-benzo[e][1,4]diazepin-5-one hydrochloride], the half-life at 1 μM [1] was 1.58 h, the pIC50 (PRMT5/MEP50) was 8.39 and the half-life at 1 μM [2] was 4.21 h. The pIC50 (SDMA in Z-138 cells) was 8.85.

From patent publication US20230250108A1, “TETRAHYDROISOQUINOLINE COMPOUNDS AND USE THEREOF” (JIANGSU SIMCERE PHARMACEUTICAL CO., LTD., priority 2020, published 2023)
